Test results published in patent US20120030841A1, “Isoxazoline compounds for combating invertebrate pests” (BASF SE, priority 2009, published 2012).

How the values were obtained:
Assay type in all cases: in vivo
[1] = test system: southern armyworm (Spodoptera eridania); experiment: Southern armyworm foliar spray test on lima bean plants; conditions: 96 h, armyworm larvae, 4 days after treatment, read-out: mortality in comparison with untreated controls
Description: (§1) The test solution was prepared the day it was used and in general at concentrations of […] (wt/vol).
The active compounds were formulated in cyclohexanone as a 10,000 ppm solution supplied in tubes. The tubes were inserted into an automated electrostatic sprayer equipped with an atomizing nozzle and they served as stock solutions for which lower dilutions were made in 50% acetone:50% water (v/v). A nonionic surfactant (Kinetic®) was included in the solution at a volume of 0.01% (v/v).
Lima bean plants (variety Sieva) were grown 2 plants to a pot and selected for treatment at the 1St true leaf stage. Test solutions were sprayed onto the foliage by an automated electrostatic plant sprayer equipped with an atomizing spray nozzle. The plants were dried in the sprayer fume hood and then removed from the sprayer. Each pot was placed into perforated plastic bags with a zip closure. About 10 to 11 armyworm larvae were placed into the bag and the bags zipped closed. Test plants were maintained in a growth room at about 25° C. and about 20-40% relative humidity for 4 days, avoiding direct exposure to fluorescent light (24 hour photoperiod) to prevent trapping of heat inside the bags. Mortality and reduced feeding were assessed 4 days after treatment, compared to untreated control plants.

[2] = test system: boll weevil (Anthonomus grandis); experiment: Boll weevil egg/larval test on insect diet, 24-well plates; conditions: 120 h, sprayed onto insect diet, egg and larval mortality, 5 days, read-out: mortality in comparison with untreated controls
Description: as §1
For evaluating control of boll weevil (Anthonomus grandis) the test unit consisted of 24-well-microtiter plates containing an insect diet and 20-30 A. grandis eggs.
The compounds were formulated using a solution containing 75% v/v water and 25% v/v DMSO. Different concentrations of formulated compounds were sprayed onto the insect diet at 20 μl, using a custom built micro atomizer, at two replications.
After application, microtiter plates were incubated at about 23±1° C. and about 50±5% relative humidity for 5 days. Egg and larval mortality was then visually assessed.

[3] = test system: green peach aphid (Myzus persicae); experiment: Green peach aphid systemic test, artificial diet under membrane, 96-well plates; conditions: 72 h, adult aphids on treated artificial diet, 3 days, read-out: mortality in comparison with untreated controls
Description: as §1
For evaluating control of green peach aphid (Myzus persicae) through systemic means the test unit consisted of 96-well-microtiter plates containing liquid artificial diet under an artificial membrane.
The compounds were formulated using a solution containing 75% v/v water and 25% v/v DMSO. Different concentrations of formulated compounds were pipetted into the aphid diet, using a custom built pipetter, at two replications.
After application, 5-8 adult aphids were placed on the artificial membrane inside the microtiter plate wells. The aphids were then allowed to suck on the treated aphid diet and incubated at about 23±1° C. and about 50±5% relative humidity for 3 days. Aphid mortality and fecundity was then visually assessed.

[4] = test system: Mediterranean fruitfly (Ceratitis capitata); experiment: Mediterranean fruitfly egg/larval test on insect diet, microtiter plates; conditions: 120 h, sprayed onto insect diet, egg and larval mortality, 5 days, read-out: mortality in comparison with untreated controls
Description: as §1
For evaluating control of Mediterranean fruitfly (Ceratitis capitata) the test unit consisted of microtiter plates containing an insect diet and 50-80 C. capitata eggs.
The compounds were formulated using a solution containing 75% v/v water and 25% v/v DMSO. Different concentrations of formulated compounds were sprayed onto the insect diet at 5 μl, using a custom built micro atomizer, at two replications. After application, microtiter plates were incubated at about 28±1° C. and about 80±5% relative humidity for 5 days. Egg and larval mortality was then visually assessed.

[5] = test system: tobacco budworm (Heliothis virescens); experiment: Tobacco budworm egg/larval test on insect diet, 96-well plates; conditions: 120 h, sprayed onto insect diet, egg and larval mortality, 5 days, read-out: mortality in comparison with untreated controls
Description: as §1
For evaluating control of tobacco budworm (Heliothis virescens) the test unit consisted of 96-well-microtiter plates containing an insect diet and 15-25 H. virescens eggs. The compounds were formulated using a solution containing 75% v/v water and 25% v/v DMSO. Different concentrations of formulated compounds were sprayed onto the insect diet at 10 μl, using a custom built micro atomizer, at two replications. After application, microtiter plates were incubated at about 28±1° C. and about 80±5% relative humidity for 5 days. Egg and larval mortality was then visually assessed.

FC(F)(F)C1(c2cc(Cl)cc(Cl)c2)CC(c2ccnc3c(Br)cccc23)=NO1 (centres unmarked) [Compound 1-1, 8-bromo-4-[5-(3,5-dichloro-phenyl)-5-trifluoromethyl-4,5-di-hydroisoxazol-3-yl]-quinoline]
> 75%: mortality at 300 ppm [1] | mortality at 2500 ppm [2] | mortality at 2500 ppm [3] | mortality at 2500 ppm [4] | mortality at 2500 ppm [5]

N#Cc1cccc2c(C3=NOC(c4cc(Cl)cc(Cl)c4)(C(F)(F)F)C3)ccnc12 (centres unmarked) [Compound 1-2, 4-[5-(3,5-dichloro-phenyl)-5-trifluoromethyl-4,5-di-hydroisoxazol-3-yl]-quinoline-8-carbonitrile]
> 75%: mortality at 300 ppm [1] | mortality at 2500 ppm [2] | mortality at 2500 ppm [4] | mortality at 2500 ppm [5]

COC(=O)c1cccc2c(C3=NOC(c4cc(Cl)cc(Cl)c4)(C(F)(F)F)C3)ccnc12 (centres unmarked) [Compound 1-3, 4-[5-(3,5-dichloro-phenyl)-5-trifluoromethyl-4,5-di-hydroisoxazol-3-yl]-quinoline-8-carboxylic acid methyl ester]
> 75%: mortality at 2500 ppm [2] | mortality at 2500 ppm [4]
